ChEMBL document CHEMBL1201862, “PubChem BioAssay data set” (2004)
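Dose response: 5 concentrations. Exposure: 48 h. Format: 96-well plates. Endpoint: linear interpolation; highest concentration if not reached. Here, GI50 denotes the concentration required for 50% inhibition of growth.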 Calls of active or inactive are those of the source. Cut-off read from the data, not from the text of the source: active = GI50 up to about 1.1 µM and inactive = higher.

Tests used:
Test in all cases: growth of human tumour cells (NCI), 48 h
[1] = test system: IGROV-1
[2] = test system: MDA-N
[3] = test system: NCI-H226
[4] = test system: HCT-15
[5] = test system: NCI-H23
[6] = test system: RXF 393
[7] = test system: A498
[8] = test system: UACC-62
[9] = test system: UO-31
[10] = test system: MCF7
[11] = test system: MOLT-4
[12] = test system: SF-539
[13] = test system: SN12C
[14] = test system: ACHN
[15] = test system: 786-0
[16] = test system: SNB-19
[17] = test system: Malme-3M
[18] = test system: MDA-MB-435
[19] = test system: SK-MEL-28
[20] = test system: NCI-H522

SMILES | GI50 [1] | GI50 [2] | GI50 [3] | GI50 [4] [µM] | GI50 [5] | GI50 [6] | GI50 [7] | GI50 [8] | GI50 [9] | GI50 [10] | GI50 [11] | GI50 [12] | GI50 [13] | GI50 [14] | GI50 [15] | GI50 [16] | GI50 [17] | GI50 [18] | GI50 [19] | GI50 [20]
CCOC(=O)c1c(N=C(S)Nc2ccc(Cl)cc2)sc2c1CCN(C)C2 | > 100 µM (inactive) | > 100 µM (inactive) | > 100 µM (inactive) | 97.9 | > 100 µM (inactive) | 32.7 µM (inactive) | > 100 µM (inactive) | > 100 µM (inactive) | 83 µM (inactive) | > 100 µM (inactive) | 41.8 µM (inactive) | 72.6 µM (inactive) | > 100 µM (inactive) | > 100 µM (inactive) | > 100 µM (inactive) | > 100 µM (inactive) |  |  |  | 
CCOC(=O)CC(=O)NC1CC2CCC1(C)C2(C)C (configuration not stated) | > 100 µM (inactive) | > 100 µM (inactive) | > 100 µM (inactive) | > 100 | > 100 µM (inactive) | > 100 µM (inactive) | > 100 µM (inactive) | > 100 µM (inactive) | > 100 µM (inactive) | > 100 µM (inactive) | > 100 µM (inactive) | > 100 µM (inactive) | > 100 µM (inactive) | > 100 µM (inactive) | > 100 µM (inactive) | > 100 µM (inactive) | > 100 µM (inactive) | > 100 µM (inactive) | > 100 µM (inactive) | 
CC[n+]1[b-](C(C)(C)C)n(/N=C(\C)C(C)(C)C)[b-](C(C)(C)C)[n+]1CC | > 100 µM (inactive) | > 10 µM (inactive) | 72.9 µM (inactive) | > 100 | > 100 µM (inactive) | > 100 µM (inactive) |  | > 100 µM (inactive) | > 100 µM (inactive) | > 100 µM (inactive) | > 100 µM (inactive) | > 100 µM (inactive) | > 100 µM (inactive) | > 100 µM (inactive) | > 100 µM (inactive) | > 100 µM (inactive) | > 100 µM (inactive) | > 100 µM (inactive) | > 100 µM (inactive) | > 100 µM (inactive)
O=C(CN1CCCC1=O)CS(=O)(=O)c1ccccc1 | > 100 µM (inactive) | > 100 µM (inactive) | > 100 µM (inactive) |  | > 100 µM (inactive) | > 100 µM (inactive) |  | > 100 µM (inactive) | > 100 µM (inactive) | > 100 µM (inactive) | > 100 µM (inactive) | > 100 µM (inactive) |  | > 100 µM (inactive) | > 100 µM (inactive) | > 100 µM (inactive) | > 100 µM (inactive) | > 100 µM (inactive) | > 100 µM (inactive) | > 100 µM (inactive)
Cc1ccc(NNc2cc(=O)[nH]c(=O)[nH]2)cc1Cl | 13.8 µM (inactive) | 15.2 µM (inactive) | 56.9 µM (inactive) | 10.6 | 16.8 µM (inactive) | 16.5 µM (inactive) | > 100 µM (inactive) | 18.3 µM (inactive) | 3.25 µM (inactive) |  | 4.98 µM (inactive) | 19.5 µM (inactive) | > 100 µM (inactive) | 9.42 µM (inactive) | 14.6 µM (inactive) | 24.4 µM (inactive) | 17.8 µM (inactive) |  | 17.2 µM (inactive) | 16.5 µM (inactive)
O=c1[nH]nc(-c2ccccc2)n1Nc1ccccc1 | > 100 µM (inactive) | > 100 µM (inactive) | > 100 µM (inactive) | > 100 | > 100 µM (inactive) | > 100 µM (inactive) | > 100 µM (inactive) | > 100 µM (inactive) | > 100 µM (inactive) |  | > 100 µM (inactive) | > 100 µM (inactive) | > 100 µM (inactive) | > 100 µM (inactive) | > 100 µM (inactive) | > 100 µM (inactive) | > 100 µM (inactive) | > 100 µM (inactive) | > 100 µM (inactive) | > 100 µM (inactive)
CC1=NC(=Cc2ccc([N+](=O)[O-])cc2)C(=O)N1n1c(-c2ccccc2)nc2ccccc2c1=O | 53.6 µM (inactive) | 49 µM (inactive) | 95.9 µM (inactive) | 43.1 | 21.8 µM (inactive) |  |  | 43.3 µM (inactive) | 31.6 µM (inactive) | 29.1 µM (inactive) | 28.8 µM (inactive) | 67.3 µM (inactive) | 52 µM (inactive) |  | 83 µM (inactive) | 55.2 µM (inactive) | 53.7 µM (inactive) | 47.6 µM (inactive) | 57.9 µM (inactive) | 32.1 µM (inactive)
O=C1N[C@@H](COc2ccc(/C=N/c3ccc(CCc4ccc(/N=C/c5ccc(OC[C@@H]6COC(=O)N6)cc5)cc4)cc3)cc2)CO1 | > 100 µM (inactive) | > 100 µM (inactive) | > 100 µM (inactive) | > 100 |  | > 100 µM (inactive) | > 100 µM (inactive) | > 100 µM (inactive) | > 100 µM (inactive) |  | > 100 µM (inactive) |  | > 100 µM (inactive) | > 100 µM (inactive) | > 100 µM (inactive) | > 100 µM (inactive) | > 100 µM (inactive) | > 100 µM (inactive) | > 100 µM (inactive) | > 100 µM (inactive)
COc1ccc(OC)c(CNc2ccc(C(=O)O)cc2)c1 | > 100 µM (inactive) | > 100 µM (inactive) | > 100 µM (inactive) | > 100 | > 100 µM (inactive) |  | > 100 µM (inactive) | > 100 µM (inactive) | > 100 µM (inactive) | > 100 µM (inactive) | > 100 µM (inactive) | > 100 µM (inactive) |  | > 100 µM (inactive) | > 100 µM (inactive) | > 100 µM (inactive) | > 100 µM (inactive) | > 100 µM (inactive) | > 100 µM (inactive) | > 100 µM (inactive)
CC1CC(C#N)=C2NCCN2C1=O (configuration not stated) | > 100 µM (inactive) | 16.4 µM (inactive) | > 100 µM (inactive) | > 100 | > 100 µM (inactive) | > 100 µM (inactive) |  | > 10 µM (inactive) | > 100 µM (inactive) | 20.8 µM (inactive) | > 100 µM (inactive) | > 100 µM (inactive) | > 100 µM (inactive) |  | > 100 µM (inactive) | > 100 µM (inactive) | 94 µM (inactive) | 18.3 µM (inactive) | > 100 µM (inactive) | 95.1 µM (inactive)
C=CCCON(C(=O)OC(C)(C)C)C(C)(C)C | > 100 µM (inactive) | > 100 µM (inactive) | > 100 µM (inactive) | > 100 | > 100 µM (inactive) | > 100 µM (inactive) | > 100 µM (inactive) | > 100 µM (inactive) | > 100 µM (inactive) |  | > 100 µM (inactive) | > 100 µM (inactive) | > 100 µM (inactive) | > 100 µM (inactive) | > 100 µM (inactive) | > 100 µM (inactive) | > 100 µM (inactive) | > 100 µM (inactive) | > 100 µM (inactive) | > 100 µM (inactive)
Cc1csc2[n+]1C(=O)/C(=C\c1ccc([N+](=O)[O-])cc1)S2 |  | 27.8 µM (inactive) | 4.1 µM (inactive) |  | 18.7 µM (inactive) | 29 µM (inactive) | 22.7 µM (inactive) | 19.2 µM (inactive) | 15.3 µM (inactive) | 32.7 µM (inactive) | 29.5 µM (inactive) | 36.1 µM (inactive) | 37.4 µM (inactive) | 25.4 µM (inactive) | 24.2 µM (inactive) | 25.4 µM (inactive) |  | 24.9 µM (inactive) | 36.9 µM (inactive) | 
O=Cc1[nH]c(=O)[nH]c(=O)c1C(=O)O | > 100 µM (inactive) | > 100 µM (inactive) | > 100 µM (inactive) | > 100 | > 100 µM (inactive) | > 100 µM (inactive) |  | > 100 µM (inactive) | > 100 µM (inactive) | > 100 µM (inactive) | > 100 µM (inactive) | > 100 µM (inactive) | > 100 µM (inactive) | > 100 µM (inactive) | > 100 µM (inactive) | > 100 µM (inactive) | > 100 µM (inactive) | > 100 µM (inactive) | > 100 µM (inactive) | > 100 µM (inactive)
CC1CC/C(=C\c2ccc(Cl)cc2)c2nc(N)c(C#N)c(-c3ccc(Cl)cc3)c21 (configuration not stated) | 62.8 µM (inactive) | 88.1 µM (inactive) | 58.6 µM (inactive) | 8.47 | 30.3 µM (inactive) |  | 26.3 µM (inactive) | 20.5 µM (inactive) | 27.7 µM (inactive) | 22.8 µM (inactive) | 14.1 µM (inactive) | 48.8 µM (inactive) | > 100 µM (inactive) | 42.2 µM (inactive) | > 100 µM (inactive) | 29.9 µM (inactive) | 13.4 µM (inactive) | 23.9 µM (inactive) | 49.4 µM (inactive) | 30.3 µM (inactive)
CC1CC(=O)NC2CC1C2(C)C (configuration not stated) | > 100 µM (inactive) | > 100 µM (inactive) | > 100 µM (inactive) | > 100 | > 100 µM (inactive) | > 100 µM (inactive) |  | > 100 µM (inactive) | > 100 µM (inactive) | > 100 µM (inactive) | > 100 µM (inactive) |  | > 100 µM (inactive) | > 100 µM (inactive) | > 100 µM (inactive) | > 100 µM (inactive) | > 100 µM (inactive) | > 100 µM (inactive) | > 100 µM (inactive) | > 100 µM (inactive)
CCC1(CC)C(=O)N(C(=O)c2ccc(C)cc2)N(C(=O)c2ccc(C)cc2)C1=O | 48.9 µM (inactive) | 63.2 µM (inactive) | > 75 µM (inactive) | 32 | 27.2 µM (inactive) | > 75 µM (inactive) |  | > 75 µM (inactive) | > 75 µM (inactive) | 45.5 µM (inactive) | 20 µM (inactive) |  | 54.2 µM (inactive) | 26.8 µM (inactive) | > 75 µM (inactive) | > 75 µM (inactive) | 14.4 µM (inactive) | > 75 µM (inactive) | > 75 µM (inactive) | 16.8 µM (inactive)
